In ChEMBL document CHEMBL5727610, “Cardiac glycoside analogs and their use in methods for inhibition of viral infection” (2020):

Assay: The inhibition of HCMV replication by digitoxin: The effect of digitoxin analogs on HCMV replication was tested. HFFs were infected with pp28-luciferase HCMV and treated with the compounds (Table 2, FIG. 2A). EC50, CC50 and selectivity index (SI) calculated as CC50/EC50 were determined for each compound. […] The compounds with the best SI were α-L rhamnose, α-L amicetose and mannose. Virus yield was determined for selected compounds (FIG. 2B), and a dose dependent effect on virus DNA yield was observed.

Row | Compound | EC50 [nM]
1 | CC1OC(OC2C(C)OC(OC3C(O)CC(O[C@H]4CC[C@@]5(C)[C@H](CC[C@@H]6[C@@H]5CC[C@]5(C)[C@@H](C7=CC(=O)OC7)CC[C@]65O)C4)OC3C)C(C)C2O)CC(OC2OC(C)[C@H](OC3OC(C)[C@@H](OC4OC(C)[C@@H](O)C[C@@H]4O)C[C@@H]3O)C[C@@H]2O)C1C (some centres not stated) | 113
2 | CC1OC(OC2C(C)OC(OC3C(O)CC(O[C@H]4CC[C@@]5(C)[C@H](CC[C@@H]6[C@@H]5CC[C@]5(C)[C@@H](C7=CC(=O)OC7)CC[C@]65O)C4)OC3C)C(C)C2O)CC(OC2OC(C)[C@H](OC3OC(C)[C@@H](OC4OC(C)[C@@H](O)C(O)[C@@H]4O)C(O)[C@@H]3O)C(O)[C@@H]2O)C1C (some centres not stated) | 233
3 | CC1OC(OC2C(O)CC(OC3C(O)CC(O[C@H]4CC[C@@]5(C)[C@H](CC[C@@H]6[C@@H]5CC[C@]5(C)[C@@H](C7=CC(=O)OC7)CC[C@]65O)C4)OC3C)OC2C)CC(OC2OC(C)[C@@H](OC3OC(C)[C@H](O)C(O)[C@H]3O)C(O)[C@H]2O)C1C (some centres not stated) | 210
4 | CC1OC(OC2C(O)CC(OC3C(O)CC(O[C@H]4CC[C@@]5(C)[C@H](CC[C@@H]6[C@@H]5CC[C@]5(C)[C@@H](C7=CC(=O)OC7)CC[C@]65O)C4)OC3C)OC2C)CC(OC2OC(C)[C@H](O)C(O)[C@@H]2O)C1C (some centres not stated) | 4.77
5 | CC1OC(OC2C(O)CC(OC3C(O)CC(O[C@H]4CC[C@@]5(C)[C@H](CC[C@@H]6[C@@H]5CC[C@]5(C)[C@@H](C7=CC(=O)OC7)CC[C@]65O)C4)OC3C)OC2C)CC(OC2OC(C)[C@@H](O)C[C@H]2O)C1C (some centres not stated) | 37.5
6 | CC1OC(OC2C(O)CC(OC3C(O)CC(O[C@H]4CC[C@@]5(C)[C@H](CC[C@@H]6[C@@H]5CC[C@]5(C)[C@@H](C7=CC(=O)OC7)CC[C@]65O)C4)OC3C)OC2C)CC(OC2OC(CO)[C@H](O)C(O)[C@@H]2O)C1C (some centres not stated) | 7.31
7 | CC1OC(OC2C(C)OC(OC3C(O)CC(O[C@H]4CC[C@@]5(C)[C@H](CC[C@@H]6[C@@H]5CC[C@]5(C)[C@@H](C7=CC(=O)OC7)CC[C@]65O)C4)OC3C)C(C)C2O)CC(OC2OC(C)[C@@H](OC3OC(C)[C@H](OC4OC(C)[C@H](O)C(O)[C@H]4O)C(O)[C@H]3O)C(O)[C@H]2O)C1C (some centres not stated) | 322
8 | CC1OC(OC2C(O)CC(OC3C(O)CC(O[C@H]4CC[C@@]5(C)[C@H](CC[C@@H]6[C@@H]5CC[C@]5(C)[C@@H](C7=CC(=O)OC7)CC[C@]65O)C4)OC3C)OC2C)CC(OC2OC(C)[C@H](OC3OC(C)[C@@H](O)C(O)[C@@H]3O)C(O)[C@@H]2O)C1C (some centres not stated) | 36.7
9 | CC1OC(OC2C(O)CC(OC3C(O)CC(O[C@H]4CC[C@@]5(C)[C@H](CC[C@@H]6[C@@H]5CC[C@]5(C)[C@@H](C7=CC(=O)OC7)CC[C@]65O)C4)OC3C)OC2C)CC(OC2OC(C)[C@@H](O)C(O)[C@H]2O)C1C (some centres not stated) | 26.6
10 | CC1OC(OC2C(O)CC(OC3C(O)CC(O[C@H]4CC[C@@]5(C)[C@H](CC[C@@H]6[C@@H]5CC[C@]5(C)[C@@H](C7=CC(=O)OC7)CC[C@]65O)C4)OC3C)OC2C)CC(OC2OC(C)[C@@H](OC3OC(C)[C@H](O)C[C@H]3O)C[C@H]2O)C1C (some centres not stated) | 786
11 | CC1OC(OC2C(C)OC(OC3C(O)CC(O[C@H]4CC[C@@]5(C)[C@H](CC[C@@H]6[C@@H]5CC[C@]5(C)[C@@H](C7=CC(=O)OC7)CC[C@]65O)C4)OC3C)C(C)C2O)CC(OC2OC(C)[C@@H](OC3OC(C)[C@H](OC4OC(C)[C@H](O)C[C@H]4O)C[C@H]3O)C[C@H]2O)C1C (some centres not stated) | 2080
12 | CC1OC(OC2C(O)CC(OC3C(O)CC(O[C@H]4CC[C@@]5(C)[C@H](CC[C@@H]6[C@@H]5CC[C@]5(C)[C@@H](C7=CC(=O)OC7)CC[C@]65O)C4)OC3C)OC2C)CC(OC2OC(C)[C@H](OC3OC(C)[C@@H](O)C[C@@H]3O)C[C@@H]2O)C1C (some centres not stated) | 14.8
